Data as given in PubChem BioAssay AID328 (DTP/NCI, 2004).
“And” between values parts separate entries of the source, which are not always exact repeats. Identical values can stand only once. Toxic doses and inconclusive results are not listed. Residues, ends and D or L forms follow the SMILES beside them. *: point of attachment. Trt = c1ccc(C(c2ccccc2)(c2ccccc2)*)cc1; Boc = CC(C)(C)OC(=O)*

Test system: BDF1 mice, P388 leukemia ip, median survival T/C
Assay: NCI In Vivo Anticancer Drug Screen. Data for tumor model P388 Leukemia (intraperitoneal) in B6D2F1 (BDF1) mice
Conditions: endpoint: median survival time, higher = longer survival
How it was run: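 In tumour-bearing mice, survival after compound treatment is set against the vehicle group and given as a quotient.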

[1] = dose: 50.0 mg/kg/injection, schedule: Q01DX009 (ip), vehicle: saline
[2] = dose: 50.0 mg/kg/injection, schedule: Q04DX003 (ip), vehicle: saline
[3] = dose: 100.0 mg/kg/injection, schedule: Q01DX009 (ip), vehicle: saline
[4] = dose: 100.0 mg/kg/injection, schedule: Q04DX003 (ip), vehicle: saline
[5] = dose: 100.0 mg/kg/injection, schedule: Q01DX009 (ip), vehicle: Klucel (hydroxypropylcellulose) (HPC)
[6] = dose: 200.0 mg/kg/injection, schedule: Q01DX009 (ip), vehicle: Klucel (hydroxypropylcellulose) (HPC)
[7] = dose: 50.0 mg/kg/injection, schedule: Q01DX009 (ip), vehicle: saline with Tween-80
[8] = dose: 100.0 mg/kg/injection, schedule: Q01DX009 (ip), vehicle: saline with Tween-80
[9] = dose: 100.0 mg/kg/injection, schedule: Q04DX003 (ip), vehicle: saline with Tween-80
[10] = dose: 200.0 mg/kg/injection, schedule: Q04DX003 (ip), vehicle: saline with Tween-80
[11] = dose: 200.0 mg/kg/injection, schedule: Q01DX009 (ip), vehicle: saline with Tween-80

CCCCN=CC(C)(C)NCCCC
T/C [1]: 91 % of control and 99 % of control | T/C [2]: 103 % of control | T/C [3]: 98 % of control and 107 % of control | T/C [4]: 103 % of control | T/C (dose: 200.0 mg/kg/injection, schedule: Q04DX003 (ip), vehicle: saline): 100 % of control

OC(CNc1ccc(CSc2ccccc2)cc1)c1ccccc1 (centres undefined)
T/C (dose: 50.0 mg/kg/injection, schedule: Q01DX009 (ip), vehicle: other): 120 % of control | T/C (dose: 100.0 mg/kg/injection, schedule: Q01DX009 (ip), vehicle: other): 123 % of control

C=C(C)C(=O)O[C@H]1CC2=CC(CC(C)=C[C@H]3OC(=O)C(=C)C13)OC2=O (some centres undefined)
T/C (dose: 12.5 mg/kg/injection, schedule: Q01DX001 (ip), vehicle: saline with Tween-80): 109 % of control | T/C (dose: 25.0 mg/kg/injection, schedule: Q01DX001 (ip), vehicle: saline with Tween-80): 120 % of control | T/C (dose: 50.0 mg/kg/injection, schedule: Q01DX001 (ip), vehicle: saline with Tween-80): 107 % of control and 111 % of control

Cc1onc(-c2ccccc2Cl)c1C(=O)Nc1ccccc1CC1c2ccccc2CCN1C (centres undefined)
T/C (dose: 50.0 mg/kg/injection, schedule: Q01DX009 (ip), vehicle: Klucel (hydroxypropylcellulose) (HPC)): 101 % of control | T/C [5]: 104 % of control | T/C [6]: 95 % of control

COC(=O)c1cc(=O)nc(N/N=C/c2ccc(C)cc2)s1
T/C (dose: 50.0 mg/kg/injection, schedule: Q01DX005 (ip), vehicle: saline with Tween-80): 94 % of control | T/C (dose: 100.0 mg/kg/injection, schedule: Q01DX005 (ip), vehicle: saline with Tween-80): 89 % of control | T/C (dose: 200.0 mg/kg/injection, schedule: Q01DX005 (ip), vehicle: saline with Tween-80): 99 % of control

CCCNC(=S)NNC(=O)c1ccncc1
T/C (dose: 6.25 mg/kg/injection, schedule: Q01DX009 (ip), vehicle: saline with Tween-80): 98 % of control | T/C (dose: 12.5 mg/kg/injection, schedule: Q01DX009 (ip), vehicle: saline with Tween-80): 97 % of control | T/C (dose: 25.0 mg/kg/injection, schedule: Q01DX009 (ip), vehicle: saline with Tween-80): 100 % of control | T/C [7]: 90 % of control | T/C [8]: 100 % of control

CC(C)(C)OC(=O)NCCCCC(NC(=O)CNC(=O)C(CSC(c1ccccc1)(c1ccccc1)c1ccccc1)NC(=O)OC(C)(C)C)C(=O)O (centres undefined) (Boc-Cys(Trt)-Gly-Lys(Boc)-OH; configuration not given here)
T/C (dose: 25.0 mg/kg/injection, schedule: Q04DX003 (ip), vehicle: saline): 100 % of control | T/C [2]: 104 % of control | T/C [4]: 104 % of control

CC(=O)n1ncc2ccc(N)cc21
T/C (dose: 25.0 mg/kg/injection, schedule: Q01DX009 (ip), vehicle: water): 94 % of control | T/C (dose: 50.0 mg/kg/injection, schedule: Q01DX009 (ip), vehicle: water): 96 % of control | T/C (dose: 50.0 mg/kg/injection, schedule: Q04DX003 (ip), vehicle: water): 103 % of control | T/C (dose: 100.0 mg/kg/injection, schedule: Q01DX009 (ip), vehicle: water): 102 % of control | T/C (dose: 100.0 mg/kg/injection, schedule: Q04DX003 (ip), vehicle: water): 103 % of control | T/C (dose: 200.0 mg/kg/injection, schedule: Q01DX009 (ip), vehicle: water): 99 % of control | T/C (dose: 200.0 mg/kg/injection, schedule: Q04DX003 (ip), vehicle: water): 101 % of control | T/C (dose: 400.0 mg/kg/injection, schedule: Q04DX003 (ip), vehicle: water): 120 % of control

CC(=O)Nc1ccc(S(=O)(=O)F)cc1
T/C (dose: 50.0 mg/kg/injection, schedule: Q04DX003 (ip), vehicle: saline with Tween-80): 87 % of control | T/C [9]: 104 % of control | T/C [10]: 100 % of control

Cc1ccc(NC(=O)c2ccccc2)cc1[As]=[As]c1cc(NC(=O)c2ccccc2)ccc1C (centres undefined)
T/C (dose: 1.25 mg/kg/injection, schedule: Q01DX009 (ip), vehicle: gum acacia): 150 % of control | T/C (dose: 1.25 mg/kg/injection, schedule: Q04DX003 (ip), vehicle: gum acacia): 122 % of control | T/C (dose: 2.2 mg/kg/injection, schedule: Q04DX003 (ip), vehicle: gum acacia): 113 % of control | T/C (dose: 2.5 mg/kg/injection, schedule: Q01DX009 (ip), vehicle: gum acacia): 165 % of control | T/C (dose: 3.3 mg/kg/injection, schedule: Q04DX003 (ip), vehicle: Klucel (hydroxypropylcellulose) (HPC)): 116 % of control | T/C (dose: 5.0 mg/kg/injection, schedule: Q04DX003 (ip), vehicle: Klucel (hydroxypropylcellulose) (HPC)): 104 % of control | T/C (dose: 10.0 mg/kg/injection, schedule: Q04DX003 (ip), vehicle: gum acacia): 154 % of control

CC(C)C1(C(=O)NNC(=O)CCCc2ccc(N(CCCl)CCCl)cc2)OC2(O)CCCCCN2C1=O (centres undefined)
T/C (dose: 50.0 mg/kg/injection, schedule: Q04DX003 (ip), vehicle: other): 175 % of control | T/C (dose: 100.0 mg/kg/injection, schedule: Q04DX003 (ip), vehicle: other): 220 % of control

Nc1ccc(N)c2c1C(=O)c1cccc([N+](=O)[O-])c1C2=O
T/C (dose: 25.0 mg/kg/injection, schedule: Q01DX010 (ip), vehicle: carboxymethylcellulose (CMC)): 95 % of control | T/C (dose: 50.0 mg/kg/injection, schedule: Q01DX010 (ip), vehicle: carboxymethylcellulose (CMC)): 105 % of control | T/C (dose: 100.0 mg/kg/injection, schedule: Q01DX010 (ip), vehicle: carboxymethylcellulose (CMC)): 115 % of control | T/C (dose: 200.0 mg/kg/injection, schedule: Q01DX010 (ip), vehicle: carboxymethylcellulose (CMC)): 105 % of control | T/C (dose: 400.0 mg/kg/injection, schedule: Q01DX010 (ip), vehicle: carboxymethylcellulose (CMC)): 110 % of control

NC1=NS(=O)(=O)N=C(N)C1=NNc1ccccc1
T/C [7]: 92 % of control | T/C [8]: 99 % of control | T/C [11]: 103 % of control

O=C(OC1c2ccccc2C2CC21)c1cc([N+](=O)[O-])cc([N+](=O)[O-])c1 (centres undefined)
T/C [7]: 100 % of control | T/C [8]: 104 % of control | T/C [11]: 104 % of control

CCOC1(CC)CN(Cc2ccccc2)CCO1 (centres undefined)
T/C (dose: 100.0 mg/kg/injection, schedule: Q01DX001 (ip), vehicle: Klucel (hydroxypropylcellulose) (HPC)): 121 % of control | T/C (dose: 200.0 mg/kg/injection, schedule: Q01DX001 (ip), vehicle: Klucel (hydroxypropylcellulose) (HPC)): 121 % of control | T/C (dose: 400.0 mg/kg/injection, schedule: Q01DX001 (ip), vehicle: Klucel (hydroxypropylcellulose) (HPC)): 115 % of control

COc1ccc2c(c1O)-c1c(OC)c(OC)cc3c1C(C2)N(C)CC3 (centres undefined)
T/C (dose: 5.0 mg/kg/injection, schedule: Q01DX010 (ip), vehicle: saline): 100 % of control | T/C (dose: 10.0 mg/kg/injection, schedule: Q01DX010 (ip), vehicle: saline): 95 % of control | T/C (dose: 20.0 mg/kg/injection, schedule: Q01DX010 (ip), vehicle: saline): 100 % of control | T/C (dose: 40.0 mg/kg/injection, schedule: Q01DX010 (ip), vehicle: saline): 100 % of control

O=C1COCC(=O)C1
T/C (dose: 100.0 mg/kg/injection, schedule: Q01DX001 (ip), vehicle: saline): 96 % of control | T/C (dose: 200.0 mg/kg/injection, schedule: Q01DX001 (ip), vehicle: saline): 107 % of control | T/C (dose: 400.0 mg/kg/injection, schedule: Q01DX001 (ip), vehicle: saline): 100 % of control

COC(=O)c1ccccc1C1(c2ccccc2C(=O)OC)OC(=O)c2ccccc21
T/C [5]: 100 % of control | T/C [6]: 100 % of control | T/C (dose: 400.0 mg/kg/injection, schedule: Q01DX009 (ip), vehicle: Klucel (hydroxypropylcellulose) (HPC)): 100 % of control

Cc1ccc([N+](=O)[O-])cc1NC(=O)SCCOC(=O)COc1ccc(Cl)cc1Cl
T/C [9]: 86 % of control | T/C [10]: 100 % of control | T/C (dose: 400.0 mg/kg/injection, schedule: Q04DX003 (ip), vehicle: saline with Tween-80): 90 % of control

N#Cc1nc2ccccc2nc1C#N
T/C (dose: 12.5 mg/kg/injection, schedule: Q01DX009 (ip), vehicle: Klucel (hydroxypropylcellulose) (HPC)): 106 % of control | T/C (dose: 25.0 mg/kg/injection, schedule: Q01DX009 (ip), vehicle: Klucel (hydroxypropylcellulose) (HPC)): 99 % of control

CC1CCCCN1CCCO (centres undefined)
T/C (dose: 25.0 mg/kg/injection, schedule: Q01DX009 (ip), vehicle: saline): 104 % of control | T/C [1]: 108 % of control | T/C [2]: 92 % of control | T/C [3]: 112 % of control | T/C [4]: 96 % of control

Cc1nc2nccnc2[nH]1
T/C [8]: 91 % of control | T/C [11]: 91 % of control | T/C (dose: 400.0 mg/kg/injection, schedule: Q01DX009 (ip), vehicle: saline with Tween-80): 100 % of control

CC(=O)C(=O)N1Cc2cc3ccccc3nc2C1
T/C (dose: 50.0 mg/kg/injection, schedule: Q01DX001 (ip), vehicle: saline sonified): 100 % of control | T/C (dose: 100.0 mg/kg/injection, schedule: Q01DX001 (ip), vehicle: saline sonified): 100 % of control | T/C (dose: 200.0 mg/kg/injection, schedule: Q01DX001 (ip), vehicle: saline sonified): 100 % of control
